Test results published in patent publication US4343816A, “Pharmaceutical composition comprising an acyl-carnitine, for treating peripheral vascular diseases” (priority 1979, dated 1982).

experiment: Tolerance and toxicity (general statement); conditions: racemic mixture or separated optically active forms, whatever the route of administration

For `CC(=O)OC(CC(=O)[O-])C[N+](C)(C)C` (stereo not drawn) [acetyl-carnitine], the tolerance was “excellent”.

experiment: in vivo; conditions: mouse, iv
Text: As is known, carnitine contains an asymetrical carbon atom and consequently exists in two stereoisomer forms.

In order of rising LD50:
1. CC(=O)CC(=O)OC(CC(=O)[O-])C[N+](C)(C)C (stereo not drawn) [acetoacetyl-carnitine]  728 mg/kg
2. CC(C)CC(=O)OC(CC(=O)[O-])C[N+](C)(C)C (stereo not drawn) [isovaleryl-carnitine]  743 mg/kg
3. CC(O)CC(=O)OC(CC(=O)[O-])C[N+](C)(C)C (stereo not drawn) [hydroxybutyryl-carnitine]  745 mg/kg
4. CC(=O)OC(CC(=O)[O-])C[N+](C)(C)C (stereo not drawn) [acetyl-carnitine]  770 mg/kg
5. C[N+](C)(C)CC(CC(=O)[O-])OC(=O)CCC(=O)O (stereo not drawn) [succinyl-carnitine]  780 mg/kg
